Measured values from patent US9636418B2 (priority 2013, dated 2017).
“And” between values parts separate entries of the source, which are not always exact repeats. Identical values can stand only once. Like-named read-outs stand apart in the source and are kept apart here.

Key:
hNav1.7 = hNav1.7 (Homo sapiens, UniProt Q15858); assay: cell-based; type: cell-based; conditions: for IC50: PatchXpress, read-out: PX hNav1.7 Tonic IC50
hNav1.4 = hNav1.4 (Homo sapiens, UniProt P35499); assay: cell-based; conditions: for IC50: PatchXpress, read-out: PX hNav1.4 Tonic IC50
hNav1.4, sequence (P35499 whole entry): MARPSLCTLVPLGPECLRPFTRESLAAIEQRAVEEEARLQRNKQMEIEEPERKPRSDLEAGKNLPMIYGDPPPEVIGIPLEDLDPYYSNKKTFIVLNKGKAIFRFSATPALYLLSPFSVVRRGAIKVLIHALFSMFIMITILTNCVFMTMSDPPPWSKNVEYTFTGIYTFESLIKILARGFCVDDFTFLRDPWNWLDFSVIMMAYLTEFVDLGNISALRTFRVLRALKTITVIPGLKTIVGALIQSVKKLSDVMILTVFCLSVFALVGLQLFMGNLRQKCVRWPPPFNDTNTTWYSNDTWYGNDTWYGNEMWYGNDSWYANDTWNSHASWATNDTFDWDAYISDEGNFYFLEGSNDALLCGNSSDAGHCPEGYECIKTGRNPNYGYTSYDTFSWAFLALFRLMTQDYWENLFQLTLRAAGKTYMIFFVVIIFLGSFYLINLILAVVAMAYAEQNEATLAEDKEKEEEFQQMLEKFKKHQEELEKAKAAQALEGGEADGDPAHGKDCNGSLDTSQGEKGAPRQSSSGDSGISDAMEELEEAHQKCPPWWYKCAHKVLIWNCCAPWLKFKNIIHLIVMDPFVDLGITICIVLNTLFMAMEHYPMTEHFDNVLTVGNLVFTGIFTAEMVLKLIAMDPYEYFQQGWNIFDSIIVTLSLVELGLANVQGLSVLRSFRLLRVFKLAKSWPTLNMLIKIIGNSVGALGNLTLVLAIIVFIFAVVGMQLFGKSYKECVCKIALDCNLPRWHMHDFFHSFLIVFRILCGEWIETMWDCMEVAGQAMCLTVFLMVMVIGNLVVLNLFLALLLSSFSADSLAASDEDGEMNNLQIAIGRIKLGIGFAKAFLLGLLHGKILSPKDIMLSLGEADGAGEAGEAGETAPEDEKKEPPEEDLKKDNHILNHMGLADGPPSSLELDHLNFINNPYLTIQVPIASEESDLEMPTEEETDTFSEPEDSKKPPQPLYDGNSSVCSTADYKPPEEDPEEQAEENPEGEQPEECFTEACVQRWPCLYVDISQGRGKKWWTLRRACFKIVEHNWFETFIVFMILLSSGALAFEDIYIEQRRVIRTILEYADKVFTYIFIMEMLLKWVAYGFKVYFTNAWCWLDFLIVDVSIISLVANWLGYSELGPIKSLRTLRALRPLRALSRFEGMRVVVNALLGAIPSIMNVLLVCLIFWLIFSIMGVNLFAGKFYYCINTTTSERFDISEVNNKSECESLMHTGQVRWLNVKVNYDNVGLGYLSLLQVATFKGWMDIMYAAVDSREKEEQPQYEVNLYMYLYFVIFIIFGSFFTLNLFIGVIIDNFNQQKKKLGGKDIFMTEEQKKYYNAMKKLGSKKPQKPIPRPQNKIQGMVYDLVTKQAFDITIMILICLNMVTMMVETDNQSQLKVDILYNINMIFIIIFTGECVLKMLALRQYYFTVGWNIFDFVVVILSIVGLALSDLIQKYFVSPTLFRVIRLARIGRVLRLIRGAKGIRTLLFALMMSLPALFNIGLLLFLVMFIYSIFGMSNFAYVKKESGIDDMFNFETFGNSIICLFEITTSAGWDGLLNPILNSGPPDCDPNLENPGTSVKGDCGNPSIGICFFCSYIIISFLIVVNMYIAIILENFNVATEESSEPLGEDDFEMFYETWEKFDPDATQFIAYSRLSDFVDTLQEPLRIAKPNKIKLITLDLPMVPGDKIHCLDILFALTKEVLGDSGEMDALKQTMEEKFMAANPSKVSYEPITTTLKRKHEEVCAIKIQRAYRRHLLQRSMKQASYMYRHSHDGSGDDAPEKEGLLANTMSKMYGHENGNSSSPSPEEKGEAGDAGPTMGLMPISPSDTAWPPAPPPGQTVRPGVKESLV

[1] = * = at high concentrations compound would wash off slowly or not at all

hNav1.7, sequence (Q15858 whole entry): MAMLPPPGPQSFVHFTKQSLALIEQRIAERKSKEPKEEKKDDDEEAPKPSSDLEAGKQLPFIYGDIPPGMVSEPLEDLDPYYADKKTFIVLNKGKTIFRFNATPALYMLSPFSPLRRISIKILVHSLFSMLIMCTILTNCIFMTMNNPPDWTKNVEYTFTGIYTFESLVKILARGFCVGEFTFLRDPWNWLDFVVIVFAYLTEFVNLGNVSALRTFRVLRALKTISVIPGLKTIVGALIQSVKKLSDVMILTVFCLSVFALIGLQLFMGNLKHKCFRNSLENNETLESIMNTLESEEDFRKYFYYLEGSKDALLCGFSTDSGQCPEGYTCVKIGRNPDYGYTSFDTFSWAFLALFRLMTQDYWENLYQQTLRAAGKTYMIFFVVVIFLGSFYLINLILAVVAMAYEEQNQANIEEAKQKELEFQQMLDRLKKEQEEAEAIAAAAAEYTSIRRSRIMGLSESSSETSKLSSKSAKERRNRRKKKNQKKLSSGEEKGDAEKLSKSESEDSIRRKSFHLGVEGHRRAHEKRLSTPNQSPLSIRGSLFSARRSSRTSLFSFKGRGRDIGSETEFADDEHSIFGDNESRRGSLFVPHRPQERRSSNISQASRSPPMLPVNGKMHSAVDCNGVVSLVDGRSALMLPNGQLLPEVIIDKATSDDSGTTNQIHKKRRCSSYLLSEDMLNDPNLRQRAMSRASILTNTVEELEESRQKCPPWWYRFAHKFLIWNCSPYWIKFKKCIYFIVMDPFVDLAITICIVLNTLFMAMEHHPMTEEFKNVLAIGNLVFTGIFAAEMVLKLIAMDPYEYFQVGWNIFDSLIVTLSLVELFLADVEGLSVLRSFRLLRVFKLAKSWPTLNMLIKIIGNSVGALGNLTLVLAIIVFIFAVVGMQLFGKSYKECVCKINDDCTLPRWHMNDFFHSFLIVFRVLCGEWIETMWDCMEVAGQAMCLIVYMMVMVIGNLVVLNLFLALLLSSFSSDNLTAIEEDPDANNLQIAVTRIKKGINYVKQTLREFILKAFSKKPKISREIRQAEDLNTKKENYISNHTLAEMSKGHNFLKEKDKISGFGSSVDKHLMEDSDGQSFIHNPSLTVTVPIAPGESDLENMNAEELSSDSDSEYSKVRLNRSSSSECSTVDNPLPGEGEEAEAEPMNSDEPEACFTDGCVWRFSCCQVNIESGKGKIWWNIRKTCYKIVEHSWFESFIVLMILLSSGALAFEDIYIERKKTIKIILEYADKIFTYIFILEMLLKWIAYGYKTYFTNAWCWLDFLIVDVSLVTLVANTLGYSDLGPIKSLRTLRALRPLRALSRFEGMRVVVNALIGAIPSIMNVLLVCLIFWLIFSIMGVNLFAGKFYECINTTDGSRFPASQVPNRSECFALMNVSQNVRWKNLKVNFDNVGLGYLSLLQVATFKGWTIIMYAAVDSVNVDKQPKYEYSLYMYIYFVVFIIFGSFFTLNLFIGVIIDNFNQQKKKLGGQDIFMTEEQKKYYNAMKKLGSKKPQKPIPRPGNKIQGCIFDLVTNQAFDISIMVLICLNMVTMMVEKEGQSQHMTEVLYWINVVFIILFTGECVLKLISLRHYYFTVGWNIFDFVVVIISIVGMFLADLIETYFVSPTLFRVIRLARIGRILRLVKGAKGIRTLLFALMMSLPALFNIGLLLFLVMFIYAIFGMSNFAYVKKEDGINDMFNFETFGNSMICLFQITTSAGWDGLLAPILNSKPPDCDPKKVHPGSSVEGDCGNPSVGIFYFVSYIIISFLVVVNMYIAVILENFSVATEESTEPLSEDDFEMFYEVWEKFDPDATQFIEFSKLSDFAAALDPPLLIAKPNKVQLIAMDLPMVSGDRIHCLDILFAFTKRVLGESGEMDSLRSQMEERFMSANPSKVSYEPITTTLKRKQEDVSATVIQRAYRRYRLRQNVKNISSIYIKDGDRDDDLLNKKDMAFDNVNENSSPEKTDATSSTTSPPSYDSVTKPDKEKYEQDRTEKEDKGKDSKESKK

Molecule | IC50 (hNav1.7; tonic block) | IC50 (hNav1.4; tonic block) | other results
C#CC[C@H](N)C(=O)NCCCC[C@@H]1NC(=O)[C@H](CCCNC(=N)N)NC(=O)[C@H](CCCCN)NC(=O)[C@H](CO)NC(=O)[C@H](CC(=O)O)NC(=O)[C@@H]2CSSC[C@@H]3NC(=O)[C@H](CCC(=O)O)NC(=O)[C@H](CC(C)C)NC(=O)CNC(=O)[C@H](CCC(=O)O)NC(=O)[C@H](CSSC[C@H](NC(=O)[C@H](Cc4ccc(O)cc4)NC(=O)[C@@H](N)CC#N)C(=O)N[C@@H](CCC(N)=O)C(=O)N[C@@H](CCCCN)C(=O)N[C@@H](Cc4c[nH]c5ccccc45)C(=O)N[C@@H](CCCC)C(=O)N[C@@H](Cc4c[nH]c5ccccc45)C(=O)N[C@@H]([C@@H](C)O)C(=O)N2)NC(=O)[C@H](CSSC[C@@H](C(=O)N[C@@H](CCCNC(=N)N)C(=O)N[C@@H](CCCCN)C(=O)N[C@@H](Cc2ccc(O)cc2)C(=O)N[C@H](C(N)=O)[C@@H](C)CC)NC(=O)[C@H](Cc2c[nH]c4ccccc24)NC(=O)[C@H](CC(C)C)NC(=O)[C@H](CCCCN)NC3=O)NC1=O [compound 394] | 0.05 nM | 964 nM | 
C#CC[C@H](N)C(=O)NCCCC[C@@H]1NC(=O)[C@H](CCCNC(=N)N)NC(=O)[C@H](CCCCN)NC(=O)[C@H](CO)NC(=O)[C@H](CC(=O)O)NC(=O)[C@@H]2CSSC[C@@H]3NC(=O)[C@H](CCC(=O)O)NC(=O)[C@H](CC(C)C)NC(=O)CNC(=O)[C@H](CCC(=O)O)NC(=O)[C@H](CSSC[C@H](NC(=O)[C@H](Cc4ccc(O)cc4)NC(=O)[C@@H](N)CC#N)C(=O)N[C@@H](CCC(N)=O)C(=O)N[C@@H](CCCCN)C(=O)N[C@@H](Cc4c[nH]c5ccccc45)C(=O)N[C@@H](CCCC)C(=O)N[C@@H](Cc4c[nH]c5ccccc45)C(=O)N[C@@H]([C@@H](C)O)C(=O)N2)NC(=O)[C@H](CSSC[C@@H](C(=O)N[C@@H](CCCNC(=N)N)C(=O)N[C@@H](CCCCN)C(=O)N[C@H](C(=O)N[C@H](C(N)=O)[C@@H](C)CC)[C@@H](C)CC)NC(=O)[C@H](Cc2c[nH]c4ccccc24)NC(=O)[C@H](CC(C)C)NC(=O)[C@H](CCCCN)NC3=O)NC1=O [compound 393] | > 100 nM | > 10000 nM | 
C#CC[C@H](N)C(=O)NCCOCCOCCOCCOCCC(=O)NCCCC[C@@H]1NC(=O)[C@H](CCCNC(=N)N)NC(=O)[C@H](CCCCN)NC(=O)[C@H](CO)NC(=O)[C@H](CC(=O)O)NC(=O)[C@@H]2CSSC[C@@H]3NC(=O)[C@H](CCCNC(=N)N)NC(=O)[C@H](CC(C)C)NC(=O)CNC(=O)[C@H](CCC(=O)O)NC(=O)[C@H](CSSC[C@H](NC(=O)[C@H](Cc4ccc(O)cc4)NC(=O)[C@@H](N)CCC)C(=O)N[C@@H](CCC(N)=O)C(=O)N[C@@H](CCCCN)C(=O)N[C@@H](Cc4c[nH]c5ccccc45)C(=O)N[C@@H](CCCC)C(=O)N[C@@H](Cc4c[nH]c5ccccc45)C(=O)N[C@@H]([C@@H](C)O)C(=O)N2)NC(=O)[C@H](CSSC[C@@H](C(=O)N[C@@H](CCCNC(=N)N)C(=O)N[C@@H](CCCCN)C(=O)N[C@H](C(=O)N[C@H](C(N)=O)[C@@H](C)CC)[C@@H](C)CC)NC(=O)[C@H](Cc2c[nH]c4ccccc24)NC(=O)[C@H](CC(C)C)NC(=O)[C@H](CCCCN)NC3=O)NC1=O [compound 432] | 1.43 nM and 1.56 nM | 16.5 nM | Nav1.4/Nav1.7 (hNav1.4; ratio of PX tonic IC50 values): 12
CCCC[C@@H]1NC(=O)[C@H](Cc2c[nH]c3ccccc23)NC(=O)[C@H](CCCCN)NC(=O)[C@H](CCC(N)=O)NC(=O)[C@@H](NC(=O)[C@@H](N)Cc2ccc(O)cc2)CSSC[C@@H]2NC(=O)[C@@H]3CSSC[C@@H](C(=O)N[C@@H](CCCNC(=N)N)C(=O)N[C@@H](CCCCN)C(=O)N[C@@H](CCC(=O)O)C(=O)N[C@H](C(N)=O)[C@@H](C)CC)NC(=O)[C@H](Cc4c[nH]c5ccccc45)NC(=O)[C@H](CC(C)C)NC(=O)[C@H](CCCCN)NC(=O)[C@H](CSSC[C@H](NC(=O)[C@H]([C@@H](C)O)NC(=O)[C@H](Cc4c[nH]c5ccccc45)NC1=O)C(=O)N[C@@H](CC(=O)O)C(=O)N[C@@H](CO)C(=O)N[C@@H](CCCCN)C(=O)N[C@@H](CCCNC(=N)N)C(=O)N[C@@H](C)C(=O)N3)NC(=O)[C@H](CCCNC(=N)N)NC(=O)[C@H](CC(C)C)NC(=O)CNC(=O)[C@H](Cc1cn(CCCOCCOCCOCCOCCOCCOCCOCCOCCOCCOCCN)nn1)NC2=O [compound 406] |  |  | IC50 (hNav1.7; [1]): 5.88 nM; IC50 (hNav1.4; [1]): 65.9 nM; Nav1.4/Nav1.7 (hNav1.4; ratio of PX IC50 values): 11
C#CC[C@H](N)C(=O)NCCCC[C@@H]1NC(=O)[C@H](CCCNC(=N)N)NC(=O)[C@H](CCCCN)NC(=O)[C@H](CO)NC(=O)[C@H](CC(=O)O)NC(=O)[C@@H]2CSSC[C@@H]3NC(=O)[C@H](CCCNC(=N)N)NC(=O)[C@H](CC(C)C)NC(=O)CNC(=O)[C@H](CCC(=O)O)NC(=O)[C@H](CSSC[C@H](NC(=O)[C@H](Cc4ccc(O)cc4)NC(=O)[C@@H](N)CCC)C(=O)N[C@@H](CCC(N)=O)C(=O)N[C@@H](CCCCN)C(=O)N[C@@H](Cc4c[nH]c5ccccc45)C(=O)N[C@@H](CCCC)C(=O)N[C@@H](Cc4c[nH]c5ccccc45)C(=O)N[C@@H]([C@@H](C)O)C(=O)N2)NC(=O)[C@H](CSSC[C@@H](C(=O)N[C@@H](CCCNC(=N)N)C(=O)N[C@@H](CCCCN)C(=O)N[C@@H](CCC(=O)O)C(=O)N[C@H](C(N)=O)[C@@H](C)CC)NC(=O)[C@H](Cc2c[nH]c4ccccc24)NC(=O)[C@H](CC(C)C)NC(=O)[C@H](CCCCN)NC3=O)NC1=O [compound 435] | 2.19 nM | 217 nM | Nav1.4/Nav1.7 (hNav1.4; ratio of PX tonic IC50 values): 99
CCCC[C@@H]1NC(=O)[C@H](Cc2c[nH]c3ccccc23)NC(=O)[C@H](CCCCN)NC(=O)[C@H](CCC(N)=O)NC(=O)[C@@H](NC(=O)[C@@H](N)Cc2cn(CCCOCCOCCOCCOCCOCCOCCOCCOCCOCCOCCN)nn2)CSSC[C@@H]2NC(=O)[C@@H]3CSSC[C@@H](C(=O)N[C@@H](CCCNC(=N)N)C(=O)N[C@@H](CCCCN)C(=O)N[C@H](C(=O)N[C@H](C(N)=O)[C@@H](C)CC)[C@@H](C)CC)NC(=O)[C@H](Cc4c[nH]c5ccccc45)NC(=O)[C@H](CC(C)C)NC(=O)[C@H](CCCCN)NC(=O)[C@H](CSSC[C@H](NC(=O)[C@H]([C@@H](C)O)NC(=O)[C@H](Cc4c[nH]c5ccccc45)NC1=O)C(=O)N[C@@H](CC(=O)O)C(=O)N[C@@H](CO)C(=O)N[C@@H](CCCCN)C(=O)N[C@@H](CCCNC(=N)N)C(=O)N[C@@H](C)C(=O)N3)NC(=O)[C@H](CCC(=O)O)NC(=O)[C@H](CC(C)C)NC(=O)CNC(=O)[C@H](CCC(=O)O)NC2=O [compound 407] |  |  | IC50 (hNav1.7; [1]): 6.48 nM; IC50 (hNav1.4; [1]): 549 nM
C#CC[C@@H]1NC(=O)[C@@H]2CSSC[C@H](NC(=O)[C@H](Cc3ccc(O)cc3)NC(=O)[C@@H](N)CC#N)C(=O)N[C@@H](CCC(N)=O)C(=O)N[C@@H](CCCCN)C(=O)N[C@@H](Cc3c[nH]c4ccccc34)C(=O)N[C@@H](CCCC)C(=O)N[C@@H](Cc3c[nH]c4ccccc34)C(=O)N[C@@H]([C@@H](C)O)C(=O)N[C@H]3CSSC[C@H](NC(=O)[C@H](CCC(=O)O)NC(=O)[C@H](CC(C)C)NC(=O)CNC1=O)C(=O)N[C@@H](CCCCN)C(=O)N[C@@H](CC(C)C)C(=O)N[C@@H](Cc1c[nH]c4ccccc14)C(=O)N[C@H](C(=O)N[C@@H](CCCNC(=N)N)C(=O)N[C@@H](CCCCN)C(=O)N[C@@H](Cc1ccc(O)cc1)C(=O)N[C@H](C(N)=O)[C@@H](C)CC)CSSC[C@H](NC(=O)[C@H](C)NC(=O)[C@H](CCCNC(=N)N)NC(=O)[C@H](CCCCN)NC(=O)[C@H](CO)NC(=O)[C@H](CC(=O)O)NC3=O)C(=O)N2 [compound 397] | 87.1 nM | 1760 nM | Nav1.4/Nav1.7 (hNav1.4; ratio of PX tonic IC50 values): 20
C#CC[C@H](N)C(=O)NCCCC[C@@H]1NC(=O)[C@H](CCCNC(=N)N)NC(=O)[C@H](CCCCN)NC(=O)[C@H](CO)NC(=O)[C@H](CC(=O)O)NC(=O)[C@@H]2CSSC[C@@H]3NC(=O)[C@H](CCC(=O)O)NC(=O)[C@H](CC(C)C)NC(=O)CNC(=O)[C@H](CCC(=O)O)NC(=O)[C@H](CSSC[C@H](NC(=O)[C@H](Cc4ccc(O)cc4)NC(=O)[C@@H](N)CCC)C(=O)N[C@@H](CCC(N)=O)C(=O)N[C@@H](CCCCN)C(=O)N[C@@H](Cc4c[nH]c5ccccc45)C(=O)N[C@@H](CCCC)C(=O)N[C@@H](Cc4c[nH]c5ccccc45)C(=O)N[C@@H]([C@@H](C)O)C(=O)N2)NC(=O)[C@H](CSSC[C@@H](C(=O)N[C@@H](CCCNC(=N)N)C(=O)N[C@@H](CCCCN)C(=O)N[C@@H](Cc2ccc(O)cc2)C(=O)N[C@H](C(N)=O)[C@@H](C)CC)NC(=O)[C@H](Cc2c[nH]c4ccccc24)NC(=O)[C@H](CC(C)C)NC(=O)[C@H](CCCCN)NC3=O)NC1=O [compound 436] | 2.96 nM |  | 
[1-Nal24]JzTx-V(1-29) [SEQ ID NO: 43] |  |  | hNav1.7 potency/activity compared with wild type JzTx-V (hNav1.7): loses considerable activity against hNav1.7
[1-Nal7]JzTx-V(1-29) [SEQ ID NO: 30] |  |  | hNav1.7 potency/activity compared with wild type JzTx-V (hNav1.7): retained hNav1.7 activity similar to the wild type peptide
CCCC[C@@H]1NC(=O)[C@H](Cc2c[nH]c3ccccc23)NC(=O)[C@H](CCCCN)NC(=O)[C@H](CCC(N)=O)NC(=O)[C@@H](NC(=O)[C@H](Cc2ccc(O)cc2)NC(=O)[C@H](C)N)CSSC[C@@H]2NC(=O)[C@@H]3CSSC[C@@H](C(=O)N[C@@H](CCCNC(=N)N)C(=O)N[C@@H](CCCCN)C(=O)N[C@H](C(=O)N[C@H](C(N)=O)[C@@H](C)CC)[C@@H](C)CC)NC(=O)[C@H](Cc4c[nH]c5ccccc45)NC(=O)[C@H](CC(C)C)NC(=O)[C@H](CCCCN)NC(=O)[C@H](CSSC[C@H](NC(=O)[C@H]([C@@H](C)O)NC(=O)[C@H](Cc4c[nH]c5ccccc45)NC1=O)C(=O)N[C@@H](CC(=O)O)C(=O)N[C@@H](CO)C(=O)N[C@@H](CCCCN)C(=O)N[C@@H](CCCNC(=N)N)C(=O)N[C@@H](C)C(=O)N3)NC(=O)[C@H](CCCNC(=N)N)NC(=O)[C@H](CC(C)C)NC(=O)CNC(=O)[C@H](CCC(=O)O)NC2=O [compound 357] |  |  | IC50 (hNav1.7; [1]): 0.307 nM
